Source: patent publication US20240368177A1, “5-AMINO-6,8-DIHYDRO-1H-FURO[3,4-d]PYRROLO[3,2-b]PYRIDINE-2-CARBOXAMIDE DERIVATIVES AS MTA-COOPERATIVE INHIBITORS OF PRMT5” (BeiGene Switzerland GmbH, priority 2023, published 2024)

What was measured:
[1] = tested on: HCT116-MTAP-KO; experiment: Cell killing in HCT116 isogenic pair (Cell Titer-Glo viability), MTAP knock-out cells; assay type: cell-based, human; settings: 6 days incubation, 0-10 μM, * = more than 50% viability inhibition at tested concentration without a full curve
In short: (§1)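 Viability was read by CellTiter-Glo luminescence after 6 days of compound treatment (0–10 μM final, 37° C, 5% CO2), and IC50 values were fitted. The isogenic HCT116 pair, MTAP-KO clone versus mock-KO MTAP-wildtype, was grown in RPMI 1640 plus 10% FBS and seeded the day before.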

[2] = tested on: HCT116-mock-RNA-KO; experiment: Cell killing in HCT116 isogenic pair (Cell Titer-Glo viability), mock knock-out cells with MTAP wildtype genotype; assay type: cell-based, human; settings: 6 days incubation, 0-10 μM
In short: as §1

SMILES	IC50 [1] [nM]	IC50 [2] [nM]	IC50 ([1]; Homo sapiens, HCT-116, 144 h) [nM]	IC50 ([2]; Homo sapiens, HCT-116, 144 h) [nM]
C[C@H]1OCc2c1c(N)nc1cc(C(=O)N(C)[C@@H]3COC4(CC4)c4cc(C(F)(F)F)cc(F)c43)[nH]c21 [Example 170, (R)-5-amino-N—((S)-5′-fluoro-7-(trifluoromethyl)spiro[cyclopropane-1,1′-isochroman]-4′-yl)-N,6-dimethyl-6,8-dihydro-1H-furo[3,4-d]pyrrolo[3,2-b]pyridine-2-carboxamide]	4.4	1010		
C[C@H]1OCc2c1c(N)nc1cc(C(=O)N(C)[C@@H]3COC4(CC4)c4cc(C5CC5)ccc43)[nH]c21 [Example 171, (R)-5-amino-N—((S)-7′-cyclopropylspiro[cyclopropane-1,1′-isochroman]-4′-yl)-N,6-dimethyl-6,8-dihydro-1H-furo[3,4-d]pyrrolo[3,2-b]pyridine-2-carboxamide]			39	3030
CN(C(=O)c1cc2nc(N)c3c(c2[nH]1)COC3)[C@@H]1COC2(CC2)c2cc(C3CC3)ccc21 [Example 172, (S)-5-amino-N-(7′-cyclopropylspiro[cyclopropane-1,1′-isochroman]-4′-yl)-N-methyl-6,8-dihydro-1H-furo[3,4-d]pyrrolo[3,2-b]pyridine-2-carboxamide]			33	5050
C[C@H](c1ccc(C2CC2)cc1F)N(C)C(=O)c1cc2nc(N)c3c(c2[nH]1)COC3 [Example 173, (R)-5-amino-N-(1-(4-cyclopropyl-2-fluorophenyl)ethyl)-N-methyl-6,8-dihydro-1H-furo[3,4-d]pyrrolo[3,2-b]pyridine-2-carboxamide]			67	5920
C[C@@H](c1ccc(C2CC2)cc1F)N(C)C(=O)c1cc2nc(N)c3c(c2[nH]1)COC3 [Example 174, (S)-5-amino-N-(1-(4-cyclopropyl-2-fluorophenyl)ethyl)-N-methyl-6,8-dihydro-1H-furo[3,4-d]pyrrolo[3,2-b]pyridine-2-carboxamide]			478	6070
CCN(C(=O)c1cc2nc(N)c3c(c2[nH]1)CO[C@@H]3C)[C@H](C)c1ccc(C2CC2)cc1F [Example 175, (R)-5-amino-N—((R)-1-(4-cyclopropyl-2-fluorophenyl)ethyl)-N-ethyl-6-methyl-6,8-dihydro-1H-furo[3,4-d]pyrrolo[3,2-b]pyridine-2-carboxamide]			14	704
CCN(C(=O)c1cc2nc(N)c3c(c2[nH]1)CO[C@@H]3C)[C@@H](C)c1ccc(C2CC2)cc1F [Example 176, (R)-5-amino-N—((S)-1-(4-cyclopropyl-2-fluorophenyl)ethyl)-N-ethyl-6-methyl-6,8-dihydro-1H-furo[3,4-d]pyrrolo[3,2-b]pyridine-2-carboxamide]			452	1780
CCN(C(=O)c1cc2nc(N)c3c(c2[nH]1)COC3)[C@H](C)c1ccc(C2CC2)cc1F [Example 177, (R)-5-amino-N-(1-(4-cyclopropyl-2-fluorophenyl)ethyl)-N-ethyl-6,8-dihydro-1H-furo[3,4-d]pyrrolo[3,2-b]pyridine-2-carboxamide]			74	2690
CCN(C(=O)c1cc2nc(N)c3c(c2[nH]1)COC3)[C@@H](C)c1ccc(C2CC2)cc1F [Example 178, (S)-5-amino-N-(1-(4-cyclopropyl-2-fluorophenyl)ethyl)-N-ethyl-6,8-dihydro-1H-furo[3,4-d]pyrrolo[3,2-b]pyridine-2-carboxamide]			1040	3270
CN(C(=O)c1cc2nc(N)c3c(c2[nH]1)COC3)[C@@H]1COC2(CC2)c2cc(Br)ccc21 [Example 179, (S)-5-amino-N-(7′-bromospiro[cyclopropane-1,1′-isochroman]-4′-yl)-N-methyl-6,8-dihydro-1H-furo[3,4-d]pyrrolo[3,2-b]pyridine-2-carboxamide]			24	4390
C[C@H]1OCc2c1c(N)nc1cc(C(=O)N(C)[C@@H]3COC4(CC4)c4cc(Br)ccc43)[nH]c21 [Example 180, (R)-5-amino-N—((S)-7′-bromospiro[cyclopropane-1,1′-isochroman]-4′-yl)-N,6-dimethyl-6,8-dihydro-1H-furo[3,4-d]pyrrolo[3,2-b]pyridine-2-carboxamide]			20	3570
CN1CC[C@@H](N(C)C(=O)c2cc3nc(N)c4c(c3[nH]2)COC4)c2ccc(C(F)(F)F)cc21 [Example 181, (R)-5-amino-N-methyl-N-(1-methyl-7-(trifluoromethyl)-1,2,3,4-tetrahydroquinolin-4-yl)-6,8-dihydro-1H-furo[3,4-d]pyrrolo[3,2-b]pyridine-2-carboxamide]			15	1800
